ChEMBL document CHEMBL1201862, “PubChem BioAssay data set” (2004)
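All cell lines were grown in 96-well plates and treated with compound for 48 hours. GI50: concentration for 50% inhibition of growth.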 The source made the active and inactive calls. Rule as the data show it: active = GI50 up to about 1.1 µM and inactive = higher.

Tests used:
Experiment in all cases: NCI-60 cell line screen, 48 h
OVCAR-5 = test system: OVCAR-5
M14 = test system: M14
MDA-MB-231 = test system: MDA-MB-231
NCI-H460 = test system: NCI-H460
HCT-15 = test system: HCT-15
UO-31 = test system: UO-31
ACHN = test system: ACHN
HCC 2998 = test system: HCC 2998
A549 = test system: A549
786-0 = test system: 786-0
CAKI-1 = test system: CAKI-1
LOX IMVI = test system: LOX IMVI
HT-29 = test system: HT-29
KM12 = test system: KM12
DU-145 = test system: DU-145
U-251 = test system: U-251
COLO 205 = test system: COLO 205
EKVX = test system: EKVX
MCF7 = test system: MCF7

SMILES	GI50 (OVCAR-5)	GI50 (M14)	GI50 (MDA-MB-231)	GI50 (NCI-H460)	GI50 (HCT-15)	GI50 (UO-31)	GI50 (ACHN)	GI50 (HCC 2998)	GI50 (A549)	GI50 (786-0)	GI50 (CAKI-1)	GI50 (LOX IMVI)	GI50 (HT-29)	GI50 (KM12)	GI50 (DU-145)	GI50 (U-251)	GI50 (COLO 205)	GI50 (EKVX)	GI50 (MCF7)
CC1OC2OC3C(OCC(O)C3O)OC(=O)[C@]34CCC(C)(C)CC3C3=CCC5[C@@]6(C)C[C@H](O)[C@H](OC7OC(CO)C(O)C(O)C7OC7OC(COC(=O)CC(C)(O)CC(=O)OC1C(OC1OC(CO)C(O)C(O)C1O)C2O)C(O)C(O)C7O)[C@@](C)(CO)C6CC[C@@]5(C)[C@]3(C)CC4 (stereo partly specified)	2.01 µM (inactive)	2.51 µM (inactive)	7.52 µM (inactive)	9.55 µM (inactive)	6.25 µM	1.64 µM (inactive)	2.72 µM (inactive)	1.42 µM (inactive)	0.14 µM (active)	2.84 µM (inactive)	7.53 µM (inactive)	3.27 µM (inactive)	1.52 µM (inactive)	2.37 µM (inactive)	2.61 µM (inactive)	2.9 µM (inactive)	2.23 µM (inactive)		
CCOC(=O)c1c(N)sc2c1C(C)(C(=O)OCC)CC2 (stereo unspecified)	> 100 µM (inactive)	> 100 µM (inactive)	> 100 µM (inactive)	69.5 µM (inactive)	> 100 µM	63.8 µM (inactive)	> 100 µM (inactive)	> 100 µM (inactive)	63.1 µM (inactive)	> 100 µM (inactive)			> 100 µM (inactive)	> 100 µM (inactive)		> 100 µM (inactive)	> 100 µM (inactive)	38.6 µM (inactive)	> 100 µM (inactive)
c1cc2c(cc1C1=NCCN1)c1cc(C3=NCCN3)ccc1n2CC1CCCCC1	22.1 µM (inactive)	33.6 µM (inactive)	16.6 µM (inactive)	14.7 µM (inactive)	> 100 µM	81.3 µM (inactive)	> 100 µM (inactive)		19.1 µM (inactive)	19.4 µM (inactive)	> 100 µM (inactive)	16.3 µM (inactive)	11.5 µM (inactive)	8.73 µM (inactive)	18.1 µM (inactive)	6.58 µM (inactive)	1.74 µM (inactive)	14.1 µM (inactive)	
CN(C)CCNc1ccc(NCC[N+](C)(C)Cc2ccc([N+](=O)[O-])cc2)c2c1C(=O)c1c(O)ccc(O)c1C2=O			43.2 µM (inactive)		6.82 µM			> 10 µM (inactive)		18.2 µM (inactive)	12.2 µM (inactive)	25.5 µM (inactive)	25.8 µM (inactive)	26.1 µM (inactive)	30.1 µM (inactive)	34 µM (inactive)	27.6 µM (inactive)	> 100 µM (inactive)	
COC(=O)/C(C#N)=C1\CCC(C(=O)OC)N1C (stereo unspecified)		> 100 µM (inactive)		> 100 µM (inactive)	> 100 µM	> 100 µM (inactive)		> 100 µM (inactive)	> 100 µM (inactive)	> 100 µM (inactive)	> 100 µM (inactive)			> 100 µM (inactive)		> 100 µM (inactive)	> 100 µM (inactive)	> 100 µM (inactive)	
CCOC(=O)C(=O)C(/C(=N/N(C)C)C(=O)Nc1ccc(C)cc1C)c1nc2ccccc2nc1O (stereo unspecified)	> 100 µM (inactive)	> 100 µM (inactive)	> 100 µM (inactive)	> 100 µM (inactive)	> 100 µM	> 100 µM (inactive)	> 100 µM (inactive)	> 100 µM (inactive)	> 100 µM (inactive)	> 100 µM (inactive)	> 100 µM (inactive)	> 100 µM (inactive)	> 100 µM (inactive)	> 100 µM (inactive)		> 100 µM (inactive)		49.1 µM (inactive)	> 100 µM (inactive)
O=C1/C(=C/C=C/c2ccccc2)N=C(c2ccccc2)N1c1ccc(S(=O)(=O)Nc2nccs2)cc1	31.6 µM (inactive)	26.4 µM (inactive)		25.8 µM (inactive)	24.4 µM	15.6 µM (inactive)	17.8 µM (inactive)		31.8 µM (inactive)	34.8 µM (inactive)	65.9 µM (inactive)	21.8 µM (inactive)	23 µM (inactive)	26.5 µM (inactive)	37.8 µM (inactive)	17.9 µM (inactive)	18.8 µM (inactive)	26.3 µM (inactive)	18.7 µM (inactive)
CC1=CC[C@@]2(CO)[C@@H]([C@@H]1C)[C@H]1CC[C@@H]3[C@@]4(C)CC[C@H](O)C(C)(C)[C@@H]4CC[C@@]3(C)[C@]1(C)C[C@@H]2O	> 100 µM (inactive)	28.2 µM (inactive)		16.3 µM (inactive)	46.3 µM	53.3 µM (inactive)	20.7 µM (inactive)		15.9 µM (inactive)	24.5 µM (inactive)	19.8 µM (inactive)	15.8 µM (inactive)	29.8 µM (inactive)	38.5 µM (inactive)	23 µM (inactive)	14.4 µM (inactive)	17.3 µM (inactive)	33.3 µM (inactive)	8.43 µM (inactive)
Cc1c2ccccc2c(C2C3C(=O)N(c4ccc(Br)cc4)C(=O)C3ON2C(C(N)=O)c2ccccc2)c2ccccc12 (stereo unspecified)	5.6 µM (inactive)	5.69 µM (inactive)		3.56 µM (inactive)	3.88 µM	10 µM (inactive)	4.12 µM (inactive)	12.1 µM (inactive)	3.64 µM (inactive)	5.5 µM (inactive)	3.67 µM (inactive)	4.97 µM (inactive)	2.58 µM (inactive)	4.11 µM (inactive)	6.43 µM (inactive)	2.69 µM (inactive)	1.77 µM (inactive)	5.28 µM (inactive)	4.43 µM (inactive)
c1csc(-c2ccc(-c3ccsc3)s2)c1	> 100 µM (inactive)	> 100 µM (inactive)	> 100 µM (inactive)	> 100 µM (inactive)	> 100 µM	> 100 µM (inactive)	> 100 µM (inactive)	> 100 µM (inactive)	> 100 µM (inactive)	> 100 µM (inactive)	> 100 µM (inactive)	> 100 µM (inactive)	> 100 µM (inactive)	> 100 µM (inactive)		> 100 µM (inactive)	> 100 µM (inactive)	> 87.3 µM (inactive)	> 100 µM (inactive)
CCOP(=O)(O)CC1OC(CO)C(O)C1O (stereo unspecified)	> 100 µM (inactive)	> 100 µM (inactive)	> 100 µM (inactive)	> 100 µM (inactive)	> 100 µM	> 100 µM (inactive)	> 100 µM (inactive)		> 100 µM (inactive)	> 100 µM (inactive)		> 100 µM (inactive)	> 100 µM (inactive)		> 100 µM (inactive)	> 100 µM (inactive)	> 100 µM (inactive)	> 100 µM (inactive)	
COc1ccc(/C=N/NC(=S)Nc2cc(C)ccc2OC)cc1	16.9 µM (inactive)	23.1 µM (inactive)			10 µM	37.9 µM (inactive)	37.2 µM (inactive)		45.1 µM (inactive)	22.7 µM (inactive)	29.7 µM (inactive)	43.8 µM (inactive)	10.1 µM (inactive)	31.7 µM (inactive)	45 µM (inactive)		17 µM (inactive)	20.8 µM (inactive)	22.9 µM (inactive)
